Assay results: patent US20170095573A1, “METHODS AND COMPOSITIONS FOR TREATING ALLERGY AND INFLAMMATORY DISEASES” (Baylor Research Institute, priority 2014, published 2017)

Legend:
[1] = system: dendritic cells and CD4+ T cells; allergic patient PBMCs; test: Th2 responses after curdlan activation of DCs / allergic patient PBMCs; format: cell-based, human
[2] = system: naïve CD4+ T cells co-cultured with TSLP-activated mDCs; test: TSLP-activated mDC-induced CD4+ T cell responses (co-culture with naive CD4+ T cells, cytokine staining / supernatant); format: cell-based, human; settings: 20 ug/ml, naïve CD4+ T cells 7 days, PMA/ionomycin 6 h, intracellular staining
Description: (FIG. 10A) Intracellular cytokine levels were analyzed by intracellular staining in cells stimulated with PMA/Ionomycin for 6 hours and with brefeldinA for 4 hrs. (FIG. 10B) Cell supernatant cytokine levels were measured by stimulating the cells with αCD3/CD28 beads for 48 hrs.
It was next tested whether anti-Dectin-1-Pam3 conjugate can indeed suppress TSLP-activated mDC-induced Th2 type T cell responses. 5×10^3 mDCs were cultured overnight with TSLP in the presence or absence of the same concentration (20 ug/ml) of anti-Dectin-1-Pam3 conjugate, combination of anti-Dectin-1 and Pam3, or Pam 3. 2×10^5 purified naïve CD4+ T cells were then added into the culture. After 7 days, T cells were stimulated for 6 h with PMA/ionomycin in the presence of brefeldin A. Cells were then stained for intracellular expression of IL-13 (Th2 type cytokine) and IFNγ (Th2 type cytokine).
Next, the Th2-type T cells were tested. mDCs were first primed with 40 ng/mL TSLP and either αdectin-1 or αDectin-1-pam3 at 20 ug/mL After 24 hrs, naïve CD4+ T cells are added to the mDCs and cultured for an additional 6 days. Intracellular cytokine levels were analyzed by intracellular staining in cells stimulated with PMA/Ionomycin for 6 hours and with brefeldinA for 4 hrs (FIG. 10A). Cell supernatant cytokine levels were measured by stimulating the cells with αCD3/CD28 beads for 48 hrs (FIG. 10B).

Row | Compound | Antigen-specific TH2 responses ([1]; Flu HA1 antigen, DCs and CD4+ T cells, restimulation with HA-1-derived peptides) | Th2-type T cell responses ([1]; allergic patient PBMCs) | Percentage of IL-13+ cells ([1]; restimulation with PMA/Ionomycin, immunostaining) | Total TH2 responses ([1]; restimulation with PMA/Ionomycin, immunostaining for IL-13 and IL-5) | IL-13+CD4+ T cell responses [2] [%]
1 | curdlan | decreased antigen-specific TH2 responses | significantly down-regulated Th2-type T cell responses | decreased significantly | downregulates total TH2 responses | 
2 | CCCCCCCCCCCCCCCC(=O)N[C@@H](CSCC(COC(=O)CCCCCCCCCCCCCCC)OC(=O)CCCCCCCCCCCCCCC)C(=O)N[C@@H](CO)C(=O)N[C@@H](CCCCN)C(=O)N[C@@H](CCCCN)C(=O)N[C@@H](CCCCN)C(=O)N[C@@H](CCCCN)C(=O)O (mixture of isomers) [Pam3, N-Palmitoyl-S-[2,3-bis(palmitoyloxy)-(2RS)-propyl]-[R]-cysteinyl-[S]-seryl-[S]-lysyl-[S]-lysyl-[S]-lysyl-[S]-lysine] |  |  |  |  | 3.47
